{"source": "patent US12234507B2", "about": "“Compositions and methods for targeted masking of autofluorescence” (10x Genomics, Inc., priority 2022, dated 2025)", "key": {"[1]": {"system": "fresh frozen (FrF) mouse brain tissues (dentate gyrus, cortex)", "assay": "Targeted masking of autofluorescence, in situ imaging of fresh frozen mouse brain tissue sections", "procedure": "(§1) Formalin-fixed paraffin embedded (FFPE) human brain tissues and fresh frozen (FrF) mouse brain tissues were obtained for this example. The samples were sectioned to 10 μm thickness and transferred to Superfrost® Plus slides. The FFPE human brain tissues were treated multiple times with Histo-Clear® and citrate buffer to remove the embedded paraffin. The FrF mouse brain samples were fixed using 3.7% formaldehyde for 5 minutes. The slides were then incubated with nucleic acid probes targeting genes of interest. The nucleic acid probes were allowed to hybridize overnight in hybridization buffer at 37° C. The next day, the samples were washed using wash buffers to remove excess or unbound probes. The probes were then ligated in the presence of ligase, RNAase inhibitor and ligation buffer for 2 hours. Subsequently, the ligation products were amplified overnight using polymerases and amplification buffers. The samples were then stained using fluorescently labelled probes. Finally, the quenching agent compound 1A was dissolved in DMF (at 18 mM), diluted with 70% ethanol to provide solutions of compound 1A at concentrations of 3.6 mM, 1.8 mM, and 0.9 mM. These solutions were applied to the samples prior to imaging. Once imaged, the fluorescently labelled probes were stripped using a denaturing agent and contacted with additional detectable probes before the next imaging round. In this manner, multiple rounds of stripping, re-probing, and imaging of signals associated with the fluorescently labelled probes, were performed without any additional quenching steps.\n(§2) To improve the binding of compound 1A to tissue moieties responsible for autofluorescence, the FrF mouse brain tissues were treated with dithiothreitol (DTT, 50 mM) and 2% TEA for 10 minutes before quenching with compound 1A. DTT reduces disulfide bridges in the tissues thereby increasing the thiol content for improved binding of compound 1A. Alternatively, the tissues were treated with a combination of 2,5-dioxopyrrolidin-1-yl 3-oxo-1-(pyridin-2-yldisulfaneyl)-7,10,13,16-tetraoxa-4-azanonadecan-19-oate (PEG4-SPDP), a derivative of succinimidyl 3-(2-pyridyldithio) propionate (SPDP) comprising an internal tetraoligoethylene linker, and DTT, to convert amines to thiols and reduce any disulfide bridges to increase thiol content. For the reduction only treatment, the tissues were treated with DTT (50 mM for 10 minutes). […] FIGS. 3A and 3C depict the fluorescence for the dentate gyrus and cortex portions prior to quenching, in which punctuate fluorescence signals were associated with rolling circle amplification products, and amorphous background fluorescence was detected."}, "FFPE human brain tissues [2]": {"system": "FFPE human brain tissues", "assay": "Targeted masking of autofluorescence, in situ imaging of FFPE human brain tissue", "procedure": "as §1\nas §2, with “minutes). For the conversion of amines to thiols and subsequent reduction, the tissues were treated first with PEG4-SPDP (10 mM) for 10 minutes, followed by treatment with DTT (50 mM) and compound 1A (0.9 mM). PEG4-SPDP is a multifunctional crosslinker for protein conjugation via amine-to-amine or amine-to-sulfhydryl crosslinks that contain a 4-unit polyethylene glycol (PEG) group and a reducible (cleavable) disulfide bond. The tissues were then washed prior to or after staining. […] Results were compared to the tissues incubated with a native thiol targeting group (control group).” for “minutes).”\nFurther studies were conducted on FFPE human brain tissue that were enriched for binding moieties in the tissue via treatment with DTT or with DTT and PEG4-SPDP. FIG. 5 depicts the signal-to-noise ratio increased post-quenching with DTT/Compound 1A and PEG4-SPDP-DTT/Compound 1A, and was maintained after stripping with DMSO treatment and rehybridization of fluorescent probes."}, "FFPE human brain tissues [3]": {"system": "FFPE human brain tissues", "assay": "Masking autofluorescence of FFPE human brain tissue with quencher analogues", "conditions": "for background signal compared to unquenched tissues: quencher 1 mM 30 min, 50 mM DTT, all four channels 488, 532, 590, 647 nm (FIGS. 7A-7D); for detected object local mean signal-to-noise ratio: quencher 1 mM, 590 nm and 647 nm (FIGS. 8B, 8C)", "procedure": "Formalin-fixed paraffin embedded (FFPE) human brain tissues were treated using the protocol described in Example 1 and further treated using 50 mM DTT for 30 minutes. Next, the tissues were incubated with the quenchers (1 mM) for 30 minutes prior to staining. Staining was performed using nucleic acid probes targeting an anchor sequence which is present within all of the RCPs and targeting epithelial genes-rp1p0, malat1, and actb. The tissues were stained with the quencher compounds 1A, 2A, 1B, 3B, a combination of quenchers 1A and 3B, or a commercial quencher (Table 1, for comparison)."}, "[4]": {"system": "FFPE human tonsil tissues", "assay": "Autofluorescence masking over multiple cycles in FFPE human tonsil tissue", "procedure": "Formalin-fixed paraffin embedded (FFPE) human tonsil and liver tissues were obtained for this example. The samples were sectioned to 5 μm thickness and transferred to Superfrost® Plus slides. The samples were treated multiple times with Histo-Clear® and citrate buffer to remove the embedded paraffin and incubated overnight with nucleic acid probes targeting epithelial genes. The next day, the samples were washed with wash buffers to remove excess or unbound probes. The probes were then ligated in the presence of ligase, RNAase inhibitor and ligation buffer for 2 hours. Subsequently, the ligation products were amplified overnight using polymerases and amplification buffers. The samples were then stained using fluorescently labelled probes. Prior to staining, the samples with treated with DTT (1 mM) for 10 minutes and quenchers with different concentrations of the compound 1A (0.1 mM, 0.5 mM, and 0.8 mM). Images of control samples without compound 1A treatment were obtained for comparison. Samples were imaged in two field of views (FOVs) to control for photo bleaching. Once imaged, the fluorescently labelled probes were stripped using a denaturing agent and contacted with additional detectable probes before the next imaging round. In this manner, multiple rounds of stripping, re-probing, and imaging of signals associated with the fluorescently labelled probes, were performed without any additional quenching steps."}, "[5]": {"conditions": "stripping of fluorescently labeled probes and rehybridization"}, "[6]": {"conditions": "PEG4-SPDP-DTT/Compound 1A (FIG. 5)"}}}
{"smiles": "COc1cc(/N=N/c2ccc([N+](=O)[O-])cc2)c(OC)cc1/N=N/c1ccc(N(C)CCCN2C(=O)C=CC2=O)cc1", "note": "[Compound 1A]", "values": [{"measurement": "staining of the tissues with the targeting chemistry", "setting": "[1]; FrF mouse brain, DTT or PEG4-SPDP/DTT enrichment, compared to native thiol control group", "result": "efficiently stain"}, {"measurement": "background signal", "setting": "[1]; after stripping with DMSO, treatment with compound 1A and rehybridization with additional probes", "result": "significantly reduced"}, {"measurement": "background in dentate gyrus (DG) and cortex samples", "setting": "[1]; mouse brain, quenched vs prior to quenching (FIGS. 3A-3D)", "result": "efficiently reduced"}, {"measurement": "autofluorescence quenching effect after stripping", "setting": "[1]; [5]", "result": "retained"}, {"measurement": "background in human brain tissues", "setting": "FFPE human brain tissues [2]", "result": "efficiently reduced"}, {"measurement": "signal to background ratio after 5 cycles of stripping and rehybridizing", "setting": "FFPE human brain tissues [2]; 488 nm, 590 nm, 532 nm and 647 nm, single quenching application (FIGS. 6A-6D)", "result": "maintained"}, {"measurement": "signal-to-noise ratio after stripping with DMSO and rehybridization of fluorescent probes", "setting": "FFPE human brain tissues [2]; DTT/Compound 1A (FIG. 5)", "result": "maintained"}, {"measurement": "signal-to-noise ratio post-quenching", "setting": "FFPE human brain tissues [2]; DTT/Compound 1A (FIG. 5)", "result": "increased"}, {"measurement": "signal-to-noise ratio after stripping with DMSO and rehybridization of fluorescent probes", "setting": "FFPE human brain tissues [2]; [6]", "result": "maintained"}, {"measurement": "signal-to-noise ratio post-quenching", "setting": "FFPE human brain tissues [2]; [6]", "result": "increased"}, {"measurement": "retention of quencher on tissues through multiple detection cycles", "setting": "FFPE human brain tissues [2]; covalently bound, no repeated quenching steps", "result": "retained"}, {"measurement": "autofluorescence quenching effect after stripping", "setting": "FFPE human brain tissues [2]; [5]", "result": "retained"}, {"measurement": "background signal compared to unquenched tissues", "setting": "FFPE human brain tissues [3]", "result": "significant reduction"}, {"measurement": "detected object local mean signal-to-noise ratio", "setting": "FFPE human brain tissues [3]", "result": "improved"}, {"measurement": "detected object density", "setting": "[4]; 0.1, 0.5 and 0.8 mM, 488 nm (FIGS. 10A-10C)", "result": "increase"}, {"measurement": "detected object local signal-to-noise ratio", "setting": "[4]; 0.1, 0.5 and 0.8 mM, 488 nm (FIGS. 11A-11C)", "result": "Increased"}, {"measurement": "background signal compared to unquenched tonsil tissues", "setting": "[4]; 0.1, 0.5 and 0.8 mM, 488 nm, cycles 5-7 vs 1-3, multiple cycles of stripping and reprobing (FIGS. 9A-9C)", "result": "Significant reduction"}, {"measurement": "background noise across all four wavelengths measured", "setting": "[4]; 488, 532, 590, 647 nm (data for additional wavelengths not shown)", "result": "reduced background noise was maintained"}, {"measurement": "signal intensity", "setting": "[4]; 488 nm, after quenching", "result": "reduced"}, {"measurement": "detected objected signal intensity above local background", "setting": "[4]; quenched tissue, 488 nm, exposure time increased from 10 ms to 30 ms (FIG. 12)", "result": "significantly improved"}]}
{"smiles": "COc1cc(/N=N/c2ccc([N+](=O)[O-])cc2)c(OC)cc1/N=N/c1ccc(N(C)CCCC(=O)ON2C(=O)CCC2=O)cc1", "note": "[Compound 1B]", "values": [{"measurement": "background signal compared to unquenched tissues", "setting": "FFPE human brain tissues [3]", "result": "significant reduction"}, {"measurement": "detected object local mean signal-to-noise ratio", "setting": "FFPE human brain tissues [3]", "result": "improved"}]}
{"smiles": "COc1cc(/N=N/c2c(Cl)cc([N+](=O)[O-])cc2Cl)c(OC)cc1/N=N/c1ccc(N(C)CCCN2C(=O)C=CC2=O)cc1", "note": "[Compound 2A]", "values": [{"measurement": "background signal compared to unquenched tissues", "setting": "FFPE human brain tissues [3]", "result": "significant reduction"}, {"measurement": "detected object local mean signal-to-noise ratio", "setting": "FFPE human brain tissues [3]", "result": "improved"}]}
{"smiles": "CCN(CC)c1ccc2nc3ccc(/N=N/c4ccc(N(C)CCCC(=O)ON5C(=O)CCC5=O)cc4)cc3[n+](-c3ccccc3)c2c1", "note": "[Compound 3B]", "values": [{"measurement": "background signal compared to unquenched tissues", "setting": "FFPE human brain tissues [3]", "result": "significant reduction"}]}
